Reference: patent publication US20040244713A1, “Method for treating animals or masses of water with compositions comprising quinone compounds” (priority 2003, published 2004)
Read-outs that look alike come from different tables or passages of the source.

Tests used:
[1] = Feeding trial in rabbits in the fattening stage (growth, mortality); type: in vivo, New Zealand White rabbits; settings: in feed: Bacitracin zinc 1.5 ppm, MSB 250 ppm; for Final number of animals / Final average weight / Mortality %: end of fattening cycle (53 days after weaning); for Final number of animals: 200 animals initially; for Average daily growth: fattening cycle of 53 days after weaning
Protocol: The effect of a preparation comprising menadione sodium bisulfite coated with saturated vegetable fatty acids on rabbits in the fattening stage is evaluated.
Composition of the preparation (per Kg of final preparation):
MSB coated with hydrogenated vegetable fatty acids (1:1 inclusion ratio) 250 g;
This preparation is added in the quantity of 1 Kg per ton of feed, so that the final concentration of MSB is equal to 125 ppm/Kg of finished food. Since rabbits are fed with 120-150 grams of feed/day, the concentration of MSB is equal to an average daily dose of approximately 15-20 mg of MSB/animal per day.
New Zealand White animals, weaned at 32 days, were grown with the preparation cited above and compared with animals of the same race, fed with the same basic feed but treated with bacitracin zinc in a quantity equal to 150 mg/100 Kg of feed and with animals lacking any drug integration.

Isochris Galbana = test: Toxicity test LC50 on Isochris Galbana; type: cell-based
Text: (§9) The table below lists the results of the toxicity tests performed on fish fauna and on some phyto- and zooplankton species considered among the possible targets of the claimed method.

[2] = test system: Dreissena Polimorfa Larvae; test: Toxicity test LC50 on Dreissena Polimorfa larvae; settings: for LC50 Dreissena Polimorfa Larvae: in vivo
Text: as §9

Eurytemora Affinis [3] = settings: in vivo
Text: as §9

Artemia Salina = test: Toxicity test LC50 on Artemia Salina; settings: in vivo
Text: as §9

[4] = OECD301 A guidelines, cited from earlier work
[5] = Hydrolysis test performed in darkness; type: physicochemical
Rainbow trout = test: Toxicity test LC50 on fish fauna, Rainbow trout; type: in vivo
Text: as §9

[6] = Photodegradability in sunlight and UV light; type: physicochemical; settings: 10-ppm solution in drinking water (pH 6.5-7.5)
Protocol: In a fully similar manner, the same behaviour is confirmed if one assesses the photodegradability in sunlight and UV light (the radiation test was performed on a 10-ppm solution in drinking water (pH 6.5-7.5)

Eurytemora Affinis [7] = test: Toxicity test LC50 on Eurytemora Affinis; settings: in vivo
Text: as §9

Micrococcus sp. AD10 = test: MIC and MBC determination; type: cell-based; settings: 24 hours in darkness, tested range 0.12-64 mg/l
Protocol: (§1) Tested concentration range: 0.12-64 mg/l.

[8] = test system: Pseudomonas elongata NCIMB 1141; test: MIC and MBC determination; type: cell-based; settings: 24 hours in darkness, tested range 0.12-64 mg/l
Protocol: as §1

Bacillus subtilis = test: MIC and MBC determination; type: cell-based; settings: Bacillus subtilis ATCC 25923; 24 hours in darkness; tested range 0.12-64 mg/l
Protocol: as §1

Corynebacterium sp. CT15 = test: MIC and MBC determination; type: cell-based; settings: 24 hours in darkness, tested range 0.12-64 mg/l
Protocol: as §1

[9] = test system: Pseudomonas aeruginosa ATCC 10145; test: MIC and MBC determination; type: cell-based; settings: 24 hours in darkness, tested range 0.12-64 mg/l
Protocol: as §1

[10] = test system: Escherichia coli ATCC 25922; test: MIC and MBC determination; type: cell-based; settings: 24 hours in darkness, tested range 0.12-64 mg/l
Protocol: as §1

[11] = test system: Pseudomonas putida NCIMB 1960; test: MIC and MBC determination; type: cell-based; settings: 24 hours in darkness, tested range 0.12-64 mg/l
Protocol: as §1

Aeromonas sp. CH34 = test: MIC and MBC determination; type: cell-based; settings: 24 hours in darkness, tested range 0.12-64 mg/l
Protocol: as §1

[12] = test system: Vibrio parahaemolyticus AD19; test: MIC and MBC determination; type: cell-based; settings: 24 hours in darkness, tested range 0.12-64 mg/l
Protocol: as §1

[13] = test system: Bacillus licheniformis NCIMB 1525; test: MIC and MBC determination; type: cell-based; settings: 24 hours in darkness, tested range 0.12-64 mg/l
Protocol: as §1

[14] = test system: Staphylococcus aureus ATCC 25923; test: MIC and MBC determination; type: cell-based; settings: 24 hours in darkness, tested range 0.12-64 mg/l
Protocol: as §1

Micrococcus sp. AE11 = test: MIC and MBC determination; type: cell-based; settings: 24 hours in darkness, tested range 0.12-64 mg/l
Protocol: as §1

[15] = Biodegradability OECD 301 A (92/69/EEC C4-A); type: physicochemical
Text: The degradability of a substance is normally a factor that is impossible to predict on a structural basis. […] On the basis of the available data related to the compounds that are chemically more similar to the derivatives of menadione described here, one could have expected a degradability comprised between the 0% (percentage calculated on the initial mass of product expressed as mg/l) of menadione (2-methyl-1,4-naphthalenedione) and the 17% (assessed after 28 days) of menadione sodium bisulfite (where the calculation was performed by using the OECD301 A guidelines annexed to EEC directive 92/69/EEC C4-A).
Finally, biodegradability according to the 92/69/EEC C4-A regulation was also assessed.

[16] = Protocol: As noted repeatedly, the water solubility of the biocidal candidate is an essential requirement for advantageous use in biological water control. Accordingly, this property was evaluated for four of the compounds that are representative of the chemical classes to which the biocides currently in use belong.
[17] = test system: Haemoncus contortus larvae (L1); test: Motility of Haemoncus contortus larvae (L1); type: in vivo
Protocol: (§2) The effect of menadione nicotinamide bisulfite on Haemoncus contortus is assessed by measuring the motility of the larvae (L1), Table 2, and the faecal count of the larvae (L3), Table 2.1, according to the methodology described in Fetterer R. et Al. (1989) Vet. Parasitol. 32:181-189.

[18] = test system: Haemoncus contortus larvae (L3); test: Faecal count of Haemoncus contortus larvae (L3); type: in vivo
Protocol: as §2

[19] = test system: Pseudomonas elongata NCIMB 1141; test: Agar diffusion test (Kirby-Bauer); type: cell-based; settings: MNB (100 μg) per disk, 24 hours in darkness
Protocol: (§3) a) Kirby-Bauer test performed after 24 hours in darkness.
(§4) In this test, paper disks impregnated with known quantities of MNB are placed on the surface of agar disks injected at confluence with a standard suspension of a bacterial strain. The antibacterial agent diffuses on the plate, causing the formation of an area of inhibition of the growth of the bacterial strain around the disk with the inhibiting quantity of the agent. By virtue of a calibration curve it was possible to classify the isolates into susceptible, moderately resistant, and resistant.
(§5) The method being considered, therefore, assesses the effectiveness of a single quantity of agent ([…]) against two control strains of Gram-positive and Gram-negative aerobic bacteria (Gram-negative: Pseudomonas elongata NCIMB 1141; Gram-positive: Staphylococcus aureus ATCC 25923).
(§6) The results are given in the table and represent the size of the inhibition halos in millimetres after contact with 100 μg of MNB.

[20] = test system: Staphylococcus aureus ATCC 25923; test: Agar diffusion test (Kirby-Bauer); type: cell-based; settings: MNB (100 μg) per disk, 24 hours in darkness
Protocol: as §3, §4, §5, §6

Vibrio sp. CH45 = settings: 24 hours in darkness, tested range 0.12-64 mg/l
Protocol: (§7) The MNB compound was tested in particular for its antibacterial activity on pathogenic and non-pathogenic organisms. The biocidal activity of MNB was estimated by using two separate methods: the agar diffusion test (Kirby-Bauer method) and the determination of the Minimum Inhibiting Concentration (MIC) and the Minimum Bactericidal Concentration (MBC).
(§8) b) Test for determining the MIC (minimum inhibiting concentration) and the MBC (minimum bactericidal concentration) of MNB with respect to pathogenic organisms after the colonies were kept in darkness for 24 hours. Tested concentration range: 0.12-64 mg/l. The tested strains were environmental isolates identified by means of an internal number or were standard strains identified by means of the ATCC or MNCIB filing number.

Vibrio sp. AE7 = settings: 24 hours in darkness, tested range 0.12-64 mg/l
Protocol: as §7, §8

Vibrio sp. AD18 = settings: 24 hours in darkness, tested range 0.12-64 mg/l
Protocol: as §7, §8

## bacitracin zinc [reference compound]
[1]
  Final number of animals: 185
  Final average weight: 2.77 kilograms
  Mortality %: 7.5%
  Average daily growth: 36.8 grams

## Cc1ccc2c(c1)C(=O)c1ccccc1C2=O [2-methyl-anthraquinone]
Isochris Galbana
  LC50 Isochris Galbana: 0.5 ppm
[2]
  LC50 Dreissena Polimorfa Larvae: 200 ppm
Eurytemora Affinis [3]
  LC50 Eurytemora Affinis: 5 ppm
Artemia Salina
  LC50 Artemia Salina: 5 ppm

## CC1=CC(=O)c2ccccc2C1=O [Menadione, 2-methyl-1,4-naphthalenedione, reference compound]
[4]; available data, time not stated
  degradability (percentage calculated on the initial mass of product expressed as mg/l): 0%
Isochris Galbana
  LC50 Isochris Galbana: 0.05 ppm
[2]; 500 ppm vs 0.2 ppm
  LC50 on Dreissena Polimorfa relative to 2-methyl-5-hydroxy-1,4-naphthalenedione: 2500 times
[2]
  LC50 Dreissena Polimorfa Larvae: 500 ppm
Eurytemora Affinis [3]
  LC50 Eurytemora Affinis: 5 ppm
[5]; PH 6.8, in darkness
  ½ LIFE, hydrolysis: 1500 h
[5]; PH 9, in darkness
  ½ LIFE, hydrolysis: 550 h
Rainbow trout
  LC50 Rainbow trout (assessed on 96 h): 0.1 ppm
[6]
  Light exp. Total Degr.: >5000 h
  Light exp. ½ life: 1500 h
Artemia Salina
  LC50 Artemia Salina: 5 ppm

## CC1=CC(=O)c2c(O)cccc2C1=O [2-methyl-5-hydroxy-1,4-naphthalenedione]
Isochris Galbana
  LC50 Isochris Galbana: 0.5 ppm
[2]
  LC50 Dreissena Polimorfa Larvae: 0.2 ppm
Artemia Salina
  LC50 Artemia Salina: 5 ppm
Eurytemora Affinis [7]
  LC50 Eurytemora Affinis: 5 ppm

## O=C1C=CC(=O)c2c(O)cccc21 [Juglone, 5-hydroxy-1,4-naphthalenedione, reference compound]
[5]; PH 9, in darkness
  ½ LIFE, hydrolysis: 15 h
[6]
  Light exp. Total Degr.: 48 h

## CC1(S(=O)(=O)O)CC(=O)c2ccccc2C1=O.NC(=O)c1cccnc1 (stereo not drawn) [MNB, menadione nicotinamide bisulfite]
Micrococcus sp. AD10
  MBC: 32 mg/L
  MIC: 16 mg/L
[8]
  MBC: 16 mg/L
  MIC: 8 mg/L
Bacillus subtilis
  MBC: 32 mg/L
  MIC: 12 mg/L
Corynebacterium sp. CT15
  MBC: 16 mg/L
  MIC: 8 mg/L
[9]
  MBC: >64 mg/L
  MIC: >64 mg/L
[10]
  MBC: >64 mg/L
  MIC: >64 mg/L
[11]
  MBC: >64 mg/L
  MIC: >64 mg/L
Aeromonas sp. CH34
  MBC: 64 mg/L
  MIC: 32 mg/L
[12]
  MBC: 4 mg/L
  MIC: 1 mg/L
[13]
  MBC: 32 mg/L
  MIC: 16 mg/L
[14]
  MBC: 16 mg/L
  MIC: 8 mg/L
Micrococcus sp. AE11
  MBC: 16 mg/L
  MIC: 8 mg/L
Isochris Galbana
  LC50 Isochris Galbana: 0.5 ppm
[2]
  LC50 Dreissena Polimorfa Larvae: 1 ppm
[15]
  degradability compared with that of MSB: as much as eight times higher
[15]; after 7 days
  % biodegr. OECD 301 A: 37%
[15]; after 14 days
  % biodegr. OECD 301 A: 37%
[15]; after 28 days
  % biodegr. OECD 301 A: 40%
[16]
  Sol. in H2O: 19 gr/l
[17]; 1 μg of MNB/ml
  % of motile larvae (L1): 70%
[17]; 10 μg of MNB/ml
  % of motile larvae (L1): 43%
[17]; 100 μg of MNB/ml
  % of motile larvae (L1): 3%
[18]; 1 μg of MNB/ml
  Total no. of larvae (L3): 650
[18]; 10 μg of MNB/ml
  Total no. of larvae (L3): 310
[18]; 100 μg of MNB/ml
  Total no. of larvae (L3): 35
[5]; PH 6.8, in darkness
  ½ LIFE, hydrolysis: 48 h
[5]; PH 9, in darkness
  ½ LIFE, hydrolysis: <3 h
Rainbow trout
  LC50 Rainbow trout (assessed on 96 h): 0.4 ppm
[6]
  Light exp. Total Degr.: 48 h
  Light exp. ½ life: 10 h
[19]
  size of the inhibition halos: 20 mm
[20]
  size of the inhibition halos: 20 mm
Artemia Salina
  LC50 Artemia Salina: 5 ppm
Vibrio sp. CH45
  MBC: 16 mg/L
  MIC: 16 mg/L
Vibrio sp. AE7
  MBC: 32 to 64 mg/L
  MIC: 16 to 32 mg/L
Vibrio sp. AD18
  MBC: 32 mg/L
  MIC: 16 mg/L
Eurytemora Affinis [7]
  LC50 Eurytemora Affinis: 5 ppm

## CC1(S(=O)(=O)[O-])CC(=O)c2ccccc2C1=O.[Na+] (stereo not drawn) [MSB, menadione sodium bisulfite]
[4]; assessed after 28 days, available/reported data
  degradability (percentage calculated on the initial mass of product expressed as mg/l): 17%
[1]
  Final number of animals: 191
  Final average weight: 2.84 kilograms
  Mortality %: 4.5%
  Average daily growth: 38.1 grams
[15]; after 7 days
  % biodegr. OECD 301 A: 5%
[15]; after 14 days
  % biodegr. OECD 301 A: 10%
